Test results reported in US9132108B2, “Pharmaceutical composition for ameliorating and/or preventing leptin resistance, and use thereof” (HIROSHIMA UNIVERSITY, priority 2009, dated 2015).

Experiments:
blood glucose level = assay: Glucose tolerance test in leptin-resistant mice (Example 11); type: in vivo, mouse; conditions: 3 hours after glucose 2 g/kg i.p.; 3 mg/kg per day orally, 3 weeks; vs control group; P<0.07 in t-test
Protocol: Similarly with Example 8, 4 weeks-old male mice (C57BL/6 Cr Slc) had been given high-fat diet for 6 months so that leptin resistance would be induced in the mice. Thereafter, the mice were divided into two groups (each consisting of 8 mice), and the mice of individual groups were given the following diets for 3 weeks. • Control group: normal diet (10 kcal % fat) only • Flurbiprofen-administered group: normal diet+flurbiprofen Flurbiprofen (F8514, produced by SIGMA) was diluted with drinking water so that the administration amount of flurbiprofen would be 3 mg/kg per day, and was orally administered to the mice in the form of drinking water. The mice to which flurbiprofen had been administered for 3 weeks were subjected to a glucose tolerance test. In Example 11, mice were fasted overnight for 17 hours from between 17:00 and 18:00 of the previous day, and fasted blood glucose level (pre) was measured by Freestyle freedom (NIPRO CORPORATION, blood glucose self-monitoring system) at 10:00 to 11:00. Thereafter, glucose was intraperitoneally (i.p.) administered so that the administration amount of glucose would be 2 g/kg. Blood glucose level was measured using Freestyle freedom (NIPRO CORPORATION, blood glucose self-monitoring system) 30 minutes, 1 hour, 2 hours, 3 hours, and 4 hours after glucose administration. FIG. 17 is a graph showing the result of the glucose tolerance test. […]

[1] = test system: mice given high-fat diet (leptin resistance); assay: Leptin-induced inhibition of food intake (Example 7); type: in vivo, mouse; conditions: Group 4 (high-fat diet+flurbiprofen); 10 mg/kg per day orally, 8 weeks; leptin 0.5 mg/kg i.p.; no significant difference vs Group 1
Protocol: Specifically, 4 weeks-old male mice (C57BL/6 Cr Slc) were divided into four groups each consisting of 6-8 mice. Mice of individual groups were given diets as follows for 8 weeks similarly with Example 5. • Group 1: Normal diet (10 kcal % fat) only • Group 2: High-fat diet (60 kcal % fat) only • Group 3: Normal diet+flurbiprofen • Group 4: High-fat diet+flurbiprofen
Flurbiprofen (F8514, produced by SIGMA) was diluted with drinking water so that the administration amount of flurbiprofen would be 10 mg/kg per day, and was orally administered to the mice in the form of drinking water.
FIG. 11 is a drawing showing the procedure of the test in Example 7. […] The mice were then habituated for 3 days. Day 0 was the date when the isolation started. In order to eliminate the influence of injection on feeding behavior, 5 mL/kg of physiological saline was intraperitoneally (i.p.) administered as dummy on Days 3 and 4. […]
Subsequently, 0.5 mg/kg of leptin (498-OB, rmLeptin, produced by R&D systems) was intraperitoneally (i.p.) administered on Day 6 and the amount of food intake up to 24 hours after the leptin administration was measured on Day 7. Using the ratio of the amount of food intake on Days 6 and 7 to the amount of food intake on Days 5 and 6 as a reference index, what influence leptin had on the amount of food intake (rate of change in amount of food intake) was analyzed. […]

[2] = test system: mice given high-fat diet for 6 months (leptin resistance); assay: Body weight of leptin-resistant mice (6 months high-fat diet), therapeutic effect (Example 8); type: in vivo, mouse; conditions: 3 mg/kg per day orally
Text: In Example 8, effectiveness of flurbiprofen in ameliorating leptin resistance was confirmed by measuring a change in body weight of mice as a reference index. Specifically, 4 weeks-old male mice (C57BL/6 Cr Slc) had been given high-fat diet for 6 months so that leptin resistance would be induced in the mice. Thereafter, the mice were divided into two groups (each consisting of 14 mice), and the mice of individual groups were given the following diets for 3 weeks. • Control group (Cont): normal diet (10 kcal % fat) only • Flurbiprofen-administered group (Ful): normal diet+flurbiprofen Flurbiprofen (F8514, produced by SIGMA) was diluted with drinking water so that the administration amount of flurbiprofen would be 3 mg/kg per day, and was orally administered to the mice in the form of drinking water. The rates of change in body weight of the mice of individual groups were measured with the date when administration of flurbiprofen started (0 week) as a reference. Further, the amount of visceral fat (g) was measured. The visceral fat was extracted from abdomens of the mice and wet weight thereof was measured. FIGS. 13 and 14 show the result. FIG. 13 is a graph showing the rates of change in body weight of the mice of the control group and the mice of the flurbiprofen-administered group. […]

GRP78 and CHOP = conditions: described in Patent Literature 1; cited from earlier work
mice = assay: Amount of mice water intake (Example 12); type: in vivo, mouse; conditions: 10 mg/kg per day orally in drinking water; normal or high-fat diet
Protocol: In order to measure the amount of mice water intake, 4 weeks-old male mice (C57BL/6 Cr Slc) were divided into four groups (each consisting of 7-8 mice), were isolated from one another so that there would be one mouse per cage. The mice were then habituated for 2 days. The amount of mice water intake was measured every 24 hours for 4 days from the forenoon on the second day of the habituation, and the amount of mice water intake for 4 days was summed up. • Group 1: Normal diet (10 kcal % fat) only • Group 2: High-fat diet (60 kcal % fat) only • Group 3: Normal diet+flurbiprofen • Group 4: High-fat diet+flurbiprofen Flurbiprofen (F8514, produced by SIGMA) was diluted with drinking water so that the administration amount of flurbiprofen would be 10 mg/kg per day, and was orally administered to the mice in the form of drinking water. FIG. 18 is a graph showing the result of the measurement of the amount of mice water intake. Values in the graph of FIG. 18 are averages of the total amounts (g) of water intake of mice of each group for 4 days (± their standard deviations) (n=7-8 with respect to each group). Further, statistic analysis was carried out using t-test.

C[C@@H](C(=O)O)c1ccc(-c2ccccc2)c(F)c1 [flurbiprofen]
blood glucose level in glucose tolerance test (blood glucose level): reduced blood glucose level | rate of change in amount of food intake after leptin administration [1]: reduced food intake caused by leptin | time after administration at which the effect of ameliorating leptin resistance is observed ([2]; rate of change in body weight vs control group): 1 week | average body weight ([2]; 3 weeks after the administration of flurbiprofen, normal diet after 6 months high-fat diet, before administration 53.479±0.7804 g, control 48.371±0.6387 g, P<0.05): 45.543 ± 1.1103 g | expression of GRP78 and CHOP induced by endoplasmic reticulum stress (GRP78 and CHOP): prevented | total amount of water intake for 4 days (mice): constant regardless of whether flurbiprofen was administered or not
